Like-named read-outs stand apart in the source and are kept apart here.
Key:
[1] = oral dose of Glucosamine Sulfate, humans; cited from earlier work
[2] = topical; cited from earlier work
skin's Hyaluronic Acid = assay: Live clinical human experiments, one side of face, neck and hands treated, other side base (placebo) lotion; type: in vivo; settings: 5% concentration, topical, versus placebo lotion on other side
Description: In examining the prior art we found our patent to be unique: • 1. U.S. Pat. No. 5,391,373 (Mausner) is distinguished by its failure to use an adequate amount of Glucosamine in order to achieve the substrate concentration for the enzyme Hyaluronate Synthase to produce a sufficient quantity and concentration of Hyaluronic Acid necessary to achieve any meaningful change in the texture of the skin, including its ability to hold onto sufficient water to increase internal hydration. Their patent claims: “1. (d) about 0.001% to 0.1% of a carbohydrate-based complex comprising dextran, glycine, and Glucosamine;”. […] Their minimum range amount claimed is calculated as: 0.001% (0.00001) times 5% (0.05%) equals 0.0000005, which is 0.00005% and equals 5 one-hundred-thousandths of a gram per 100 milliliters, and is totally inconsequential for having any positive effect. […]

[3] = oral, dog; cited from earlier work
[4] = simple diffusion, not active transport; cited from earlier work
solar lentinges = settings: cited from earlier work
[5] = topical; cited from earlier work; remark: listed apart in the source

N[C@H]1C(O)O[C@H](CO)[C@@H](O)[C@@H]1O.O=S(=O)(O)O (stereo partly drawn) [Glucosamine Sulfate]
absorbed [1]: about 90% | absorption through the skin [2]: much better absorbed into the body via the skin | production of the skin's Hyaluronic Acid (skin's Hyaluronic Acid): markedly enhancing

N[C@@H]1[C@@H](O)[C@H](O)[C@@H](CO)O[C@@H]1O [Glucosamine, 2-amino-2-deoxy-alpha-D-glucose]
absorbed [3]: 87%

CC(=O)N[C@H]1C(O)O[C@H](CO)[C@@H](O)[C@@H]1O (stereo partly drawn) [N-acetylglucosamine, N-acetyl-D-Glucosamine]
oral absorption [4]: not well absorbed orally | absorption through the skin [2]: very poorly absorbed through the skin

Ascorbyl Glucosamine
effect on skin ("liver spot") pigmentation (solar lentinges): no positive effects

hyaluronic acid [250,000 Dalton sized hyaluronic acid]
absorption into the skin [5]: very low percentage

hyaluronic acid [600,000 Dalton molecular weight hyaluronic acid]
absorption into the skin [5]: only a few percent

Source: US20070092469A1, “Topically applied Glucosamine Sulfate and all its related, precursor, and derivative compounds significantly increases the skin's natural produciton of hyaluronic acid for the rejuvenation of healthier younger-looking skin; while PhosphatidylCholine is required to replace its deficiency caused by …” (priority 2005, published 2007)
